Measurements from patent US9421188B2, “Combination product comprising phentermine and topiramate, and preparation method thereof” (Institute of Pharmacology and Toxicology Academy of …, priority 2012, dated 2016).

Key:
[1] = cited from earlier work
human plasma protein = settings: plasma concentration range of 0.5-250 μm/ml; decreases with increase of plasma concentration; cited from earlier work
[2] = Effects of different dissolution media on release rate of sustained-release pellet of topiramate; type: physicochemical; settings: artificial gastric fluid with pH of 1.2; degradation reaction
Protocol: In order to verify whether acidic, basic solvent media would influence the release rate of the sustained-release pellets of the present invention, 0.1 mol/L HCl (pH1.2) was prepared as artificial gastric fluid, […] phosphate buffer (pH6.8) was prepared as artificial intestinal fluid, and these media and water (500 ml) were used as release media separately, and rotation speed was 100 rpm, 37° C. 5 ml of Samples (supplemented with equivalent volume of media at the meantime) were separately taken at 1, 2, 4, 8, 12, 16, 20, 24 h, filtrated, and the subsequent filtrates were used as test solutions. High performance liquid chromatography (Appendix V D, Part II, Chinese Pharmacopoeia, 2010 Edition) was used, octylsilane-bonded silica gel was used as packing agent, 50% methanol was mobile phase, differential refractive detector was used, and flow rate was 1.5 ml per minute. 200 μl of test solution was taken and injected in liquid chromatography, and the peak area of topiramate as main drug was recorded; moreover, topiramate was taken as reference material and measured by the same method, and accumulative release percentages of drug at different time points were calculated by external standard method. The release profile of sample of Batch 1 in Example 6 (2) in the above mentioned media were drawn, and the results were shown in FIG. 2.

[3] = cited from earlier work; remark: listed apart in the source

CC1(C)O[C@@H]2[C@@H](CO[C@@]3(COS(N)(=O)=O)OC(C)(C)O[C@@H]23)O1 [Topiramate, 2,3,4,5-bis-O-(1-methylethylidene)-β-D-fructopyranose sulfamate]
Plasma half-life ([1]; human, in vivo): 19 to 25 h | Clearance for oral administration ([1]; oral administration): 22 to 36 mL/min | Human plasma protein binding ratio (human plasma protein): 15-41% | Stability of topiramate in artificial gastric fluid [2]: unstable | Solubility in organic solvents ([3]; acetone, chloroform, dimethylsulfoxide and ethanol): freely soluble | Solubility in alkaline solution ([3]; pH of 9-10, sodium hydroxide or sodium phosphate solutions): very freely soluble
